Experimental data reported in US20260092076A1, “NOVEL COMPOUNDS” (Hoffmann-La Roche Inc., priority 2023, published 2026).
Counter-ions that a name gives are not always drawn.

Legend:
NLRP3 [1] = target: T1, NLRP3 (Homo sapiens, UniProt Q96P20); assay: Human whole blood IL-1β release assay; format: cell-based; conditions: human whole blood with 1 μg/ml LPS, compound 3 hours, nigericin 10 μM 1 hr, IL-1β by AlphaLisa
Method: For systemic delivery, the ability to inhibit NLRP3 when the compounds are present within the bloodstream is of great importance. For this reason, the NLRP3 inhibitory activity of a number of compounds in human whole blood was investigated in accordance with the following protocol. • Human whole blood in Li-heparin tubes was obtained from healthy donors from a volunteer donor panel. • Plate out 80 μl of whole blood containing 1 μg/ml of LPS in 96-well, clear bottom cell culture plate (Corning #3585) • Add 10 μl compound (8 points half-log dilution with 10 μM top dose) or vehicle (DMSO 0.1% FAC) to the appropriate wells • Incubate for 3 hours at 37° C., 5% CO2 • Add 10 μl nigericin (Sigma #N7143) (10 μM FAC) to all wells • Incubate for 1 hr at 37° C., 5% CO2 • At the end of the incubation period, spin plates at 300×g for 5 mins to pellet cells and remove 20 μl of supernatant and add to 96-well v-bottom plates for IL-1β analysis (note: these plates containing the supernatants can be stored at −80° C. to be analysed at a later date) • IL-1β was measured according to the manufacturer protocol (Perkin Elmer-AlphaLisa IL-1 Kit AL220F-5000) • IC50 data is fitted to a non-linear regression equation (log inhibitor vs response-variable slope 4-parameters)

NLRP3 [2] = target: T1, NLRP3; assay: THP-1 cells pyroptosis assay; format: cell-based; set-up: Seed THP-1 cells (25,000 cells/well) containing 1.0 μg/ml LPS in 40 μl of RPMI medium; host or cells: THP-1 cells, LPS-primed, nigericin-stimulated; conditions: THP-1 cells with 1.0 μg/ml LPS, compound 3 hours, nigericin 5 μM 1 hr, resazurin readout
Method: THP-1 cells (ATCC #TIB-202) were grown in RPMI containing L-glutamine (Gibco #11835) supplemented with 1 mM sodium pyruvate (Sigma #S8636) and penicillin (100 units/ml)/streptomycin (0.1 mg/ml) (Sigma #P4333) in 10% Fetal Bovine Serum (FBS) (Sigma #F0804). The cells were routinely passaged and grown to confluency (˜10^6 cells/ml). On the day of the experiment, THP-1 cells were harvested and resuspended into RPMI medium (without FBS). The cells were then counted and viability (>90%) checked by Trypan blue (Sigma #T8154). Appropriate dilutions were made to give a concentration of 625,000 cells/ml. To this diluted cell solution was added LPS (Sigma #L4524) to give a 1 μg/ml Final Assay Concentration (FAC). 40 μl of the final preparation was aliquoted into each well of a 96-well plate. The plate thus prepared was used for compound screening.
The following method step-by-step assay was followed for compound screening. • Seed THP-1 cells (25,000 cells/well) containing 1.0 μg/ml LPS in 40 μl of RPMI medium (without FBS) in 96-well, black walled, clear bottom cell culture plates coated with poly-D-lysine (VWR #734-0317) • Add 5 μl compound (8 points half-log dilution, with 10 μM top dose) or vehicle (DMSO 0.1% FAC) to the appropriate wells • Incubate for 3 hours at 37° C., 5% CO2 • Add 5 μl nigericin (Sigma #N7143) (FAC 5 μM) to all wells • Incubate for 1 hr at 37° C., 5% CO2 • At the end of the incubation period, spin plates at 300×g for 3 mins and remove supernatant • Then add 50 μl of resazurin (Sigma #R7017) (FAC 100 μM resazurin in RPMI medium without FBS) and incubate plates for a further 1-2 hours at 37° C. and 5% CO2 • Plates were read in an Envision reader at Ex 560 nm and Em 590 nm • IC50 data is fitted to a non-linear regression equation (log inhibitor vs response-variable slope 4-parameters)

T1 sequence (Q96P20 whole entry): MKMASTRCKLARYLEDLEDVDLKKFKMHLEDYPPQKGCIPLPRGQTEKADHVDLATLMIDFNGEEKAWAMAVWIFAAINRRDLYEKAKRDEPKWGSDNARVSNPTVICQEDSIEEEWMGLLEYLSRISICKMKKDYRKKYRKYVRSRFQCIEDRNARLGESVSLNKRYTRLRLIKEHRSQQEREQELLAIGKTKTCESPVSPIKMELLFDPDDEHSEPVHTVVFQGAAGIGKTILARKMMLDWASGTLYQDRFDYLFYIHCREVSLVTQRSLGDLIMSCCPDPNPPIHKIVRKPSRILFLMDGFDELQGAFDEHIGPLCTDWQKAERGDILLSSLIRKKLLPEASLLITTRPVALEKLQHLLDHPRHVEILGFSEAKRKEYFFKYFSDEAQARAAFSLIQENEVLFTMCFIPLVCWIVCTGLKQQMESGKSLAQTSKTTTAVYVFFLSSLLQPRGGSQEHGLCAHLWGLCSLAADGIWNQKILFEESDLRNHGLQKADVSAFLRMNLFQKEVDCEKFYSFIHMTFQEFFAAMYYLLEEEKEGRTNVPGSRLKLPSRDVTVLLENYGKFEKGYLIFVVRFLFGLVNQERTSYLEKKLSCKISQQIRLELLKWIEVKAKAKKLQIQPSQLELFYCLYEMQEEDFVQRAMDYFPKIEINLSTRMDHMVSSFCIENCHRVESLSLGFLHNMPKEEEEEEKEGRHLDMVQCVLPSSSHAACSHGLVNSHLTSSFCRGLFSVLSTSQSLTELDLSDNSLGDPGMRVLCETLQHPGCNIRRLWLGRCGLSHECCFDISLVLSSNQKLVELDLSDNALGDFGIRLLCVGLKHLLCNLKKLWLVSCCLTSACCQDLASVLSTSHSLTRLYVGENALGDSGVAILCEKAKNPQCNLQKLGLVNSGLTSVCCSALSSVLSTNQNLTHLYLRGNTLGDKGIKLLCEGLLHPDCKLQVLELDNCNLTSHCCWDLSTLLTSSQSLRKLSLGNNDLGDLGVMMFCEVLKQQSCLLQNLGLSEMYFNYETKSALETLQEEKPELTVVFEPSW

| Structure (SMILES) | IC50 (NLRP3 [1]) [nM] | IC50 (NLRP3 [2]) [nM] |
| --- | --- | --- |
| Cc1cc(Cl)cc(O)c1-c1ccc2oc(N3Cc4cc(=O)[nH]nc4C3)nc2n1 [Example 38, 6-[5-(4-chloro-2-hydroxy-6-methyl-phenyl)oxazolo[4,5-b]pyridin-2-yl]-5,7-dihydro-2H-pyrrolo[3,4-c]pyridazin-3-one] | 168 | 22 |
| Cc1cc(C(F)(F)F)cc(O)c1-c1ccc2oc(N3Cc4c[nH]c(=O)cc4C3)nc2n1 [Example 1, 2-[5-[2-Hydroxy-6-methyl-4-(trifluoromethyl)phenyl]oxazolo[4,5-b]pyridin-2-yl]-3,5-dihydro-1H-pyrrolo[3,4-c]pyridin-6-one] | 108 | 0.7 |
| COc1ncc2c(n1)CCN(c1nc3nc(-c4c(C)cc(Cl)cc4O)ccc3o1)C2 [Example 32, 5-Chloro-2-[2-(2-methoxy-7,8-dihydro-5H-pyrido[4,3-d]pyrimidin-6-yl)oxazolo[4,5-b]pyridin-5-yl]-3-methyl-phenol] | 285 | 24.9 |
| Cc1cc(C#N)cc(O)c1-c1ccc2oc(N3Cc4ccncc4C3)nc2n1 [Example 10, 4-[2-(1,3-Dihydropyrrolo[3,4-c]pyridin-2-yl)oxazolo[4,5-b]pyridin-5-yl]-3-hydroxy-5-methyl-benzonitrile] | 2230 | 29 |
| Cc1cc(C(F)(F)F)cc(O)c1-c1ccc2oc(N3Cc4ccc(=O)n(C)c4C3)nc2n1 [Example 21, 6-[5-[2-Hydroxy-6-methyl-4-(trifluoromethyl)phenyl]oxazolo[4,5-b]pyridin-2-yl]-1-methyl-5,7-dihydropyrrolo[3,4-b]pyridin-2-one] | 1960 | 22.3 |
| Cc1cc(Cl)cc(O)c1-c1ccc2oc(N3CCc4[nH]c(=O)ccc4C3)nc2n1 [Example 37, 6-[5-(4-Chloro-2-hydroxy-6-methyl-phenyl)oxazolo[4,5-b]pyridin-2-yl]-1,5,7,8-tetrahydro-1,6-naphthyridin-2-one] | 676 | 71.1 |
| Cc1cc(Cl)cc(O)c1-c1ccc2oc(N3Cc4cncnc4C3)nc2n1 [Example 13, 5-Chloro-2-[2-(5,7-dihydropyrrolo[3,4-d]pyrimidin-6-yl)oxazolo[4,5-b]pyridin-5-yl]-3-methyl-phenol formic acid salt] | 304 | 15 |
| Cc1cc(C#N)cc(O)c1-c1ccc2oc(N3Cc4c[nH]c(=O)cc4C3)nc2n1 [Example 3, 3-Hydroxy-5-methyl-4-[2-(6-oxo-3,5-dihydro-1H-pyrrolo[3,4-c]pyridin-2-yl)oxazolo[4,5-b]pyridin-5-yl]benzonitrile] | 117 | 7.7 |
| Cc1cc(Cl)cc(O)c1-c1cnc2oc(N3Cc4ccncc4C3)nc2n1 [Example 29, 5-Chloro-2-[2-(1,3-dihydropyrrolo[3,4-c]pyridin-2-yl)oxazolo[4,5-b]pyrazin-5-yl]-3-methyl-phenol; formic acid] | 35.9 | 2.1 |
| Cc1cc(C#N)cc(O)c1-c1ccc2oc(N3CCc4ncncc4C3)nc2n1 [Example 17, 4-[2-(7,8-Dihydro-5H-pyrido[4,3-d]pyrimidin-6-yl)oxazolo[4,5-b]pyridin-5-yl]-3-hydroxy-5-methyl-benzonitrile] | 225 | 34.9 |
| Cc1ncc2c(n1)CCN(c1nc3nc(-c4c(C)cc(Cl)cc4O)ccc3o1)C2 [Example 11, 5-Chloro-3-methyl-2-[2-(2-methyl-7,8-dihydro-5H-pyrido[4,3-d]pyrimidin-6-yl)oxazolo[4,5-b]pyridin-5-yl]phenol] | 225 | 27.1 |
| Cc1cc(C(F)(F)F)cc(O)c1-c1ccc2oc(N3Cc4ccc(=O)[nH]c4C3)nc2n1 [Example 20, 6-[5-[2-Hydroxy-6-methyl-4-(trifluoromethyl)phenyl]oxazolo[4,5-b]pyridin-2-yl]-5,7-dihydro-1H-pyrrolo[3,4-b]pyridin-2-one] | 1450 | 4.2 |
| Cc1cc(C(F)(F)F)cc(O)c1-c1ccc2oc(N3CCc4cc(=O)[nH]cc4C3)nc2n1 [Example 19, 7-[5-[2-Hydroxy-6-methyl-4-(trifluoromethyl)phenyl]oxazolo[4,5-b]pyridin-2-yl]-2,5,6,8-tetrahydro-2,7-naphthyridin-3-one] | 962 | 11.1 |
| Cc1cc(Cl)cc(O)c1-c1ccc2oc(N3Cc4ccncc4C3)nc2n1 [Example 7, 5-chloro-2-[2-(1,3-dihydropyrrolo[3,4-c]pyridin-2-yl)oxazolo[4,5-b]pyridin-5-yl]-3-methyl-phenol] | 487 | 9.5 |
| Cc1cc(Cl)cc(O)c1-c1ccc2oc(N3CCc4ccncc4C3)nc2n1 [Example 15, 5-Chloro-2-[2-(3,4-dihydro-1H-2,7-naphthyridin-2-yl)oxazolo[4,5-b]pyridin-5-yl]-3-methyl-phenol] | 173 | 10.5 |
| Cc1cc(Cl)cc(O)c1-c1ccc2oc(N3Cc4c[nH]nc4C3)nc2n1 [Example 14, 5-Chloro-2-[2-(4,6-dihydro-2H-pyrrolo[3,4-c]pyrazol-5-yl)oxazolo[4,5-b]pyridin-5-yl]-3-methyl-phenol] | 305 | 56.2 |
| Cc1cc(C(F)(F)F)cc(O)c1-c1ccc2oc(N3Cc4cncnc4C3)nc2n1 [Example 18, 2-[2-(5,7-Dihydropyrrolo[3,4-d]pyrimidin-6-yl)oxazolo[4,5-b]pyridin-5-yl]-3-methyl-5-(trifluoromethyl)phenol] | 2350 | 6.9 |
